{
  "source": "ChEMBL document CHEMBL1201862",
  "about": "“PubChem BioAssay data set” (2004)",
  "key": {"[1]": {"biological_target": "T1, High affinity choline transporter 1 (Homo sapiens, UniProt Q9GZV3)", "T1 sequence (Q9GZV3 whole entry)": "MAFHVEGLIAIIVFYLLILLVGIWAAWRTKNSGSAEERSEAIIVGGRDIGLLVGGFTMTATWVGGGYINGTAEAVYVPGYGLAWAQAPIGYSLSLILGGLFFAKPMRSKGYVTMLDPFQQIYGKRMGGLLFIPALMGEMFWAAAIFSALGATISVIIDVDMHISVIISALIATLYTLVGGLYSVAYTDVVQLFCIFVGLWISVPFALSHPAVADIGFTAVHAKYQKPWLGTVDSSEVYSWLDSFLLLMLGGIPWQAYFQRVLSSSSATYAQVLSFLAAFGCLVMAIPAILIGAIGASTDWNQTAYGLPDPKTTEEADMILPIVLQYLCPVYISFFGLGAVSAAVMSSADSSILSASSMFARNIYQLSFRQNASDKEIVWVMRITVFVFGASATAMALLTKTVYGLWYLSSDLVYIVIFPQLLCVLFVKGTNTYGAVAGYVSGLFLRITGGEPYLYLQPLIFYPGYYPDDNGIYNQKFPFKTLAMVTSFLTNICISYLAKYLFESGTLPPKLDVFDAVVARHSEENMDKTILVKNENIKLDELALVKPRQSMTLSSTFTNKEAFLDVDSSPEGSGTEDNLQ", "experiment": "human choline transporter potentiators, potency – cell-based, 10-point CRC, membrane potential dye, dose response (AID 602376)", "format": "functional"}, "[2]": {"biological_target": "Procathepsin L (Homo sapiens, UniProt P07711)", "sequence (P07711 whole entry)": "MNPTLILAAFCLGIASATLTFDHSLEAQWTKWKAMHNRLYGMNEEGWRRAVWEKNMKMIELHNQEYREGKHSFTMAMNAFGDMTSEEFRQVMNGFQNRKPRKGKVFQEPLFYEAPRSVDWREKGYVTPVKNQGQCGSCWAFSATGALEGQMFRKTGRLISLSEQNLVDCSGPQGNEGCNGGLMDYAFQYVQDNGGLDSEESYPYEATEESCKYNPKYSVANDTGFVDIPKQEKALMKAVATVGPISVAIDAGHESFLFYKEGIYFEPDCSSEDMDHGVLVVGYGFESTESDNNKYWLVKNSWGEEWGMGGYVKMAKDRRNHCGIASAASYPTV"}, "[3]": {"biological_target": "Aspartyl aminopeptidase (Plasmodium falciparum 3D7, UniProt Q8I2J3)"}, "[4]": {"biological_target": "Multidrug resistance protein CDR1 (Candida albicans, UniProt P43071)", "sequence (P43071 whole entry, looked up)": "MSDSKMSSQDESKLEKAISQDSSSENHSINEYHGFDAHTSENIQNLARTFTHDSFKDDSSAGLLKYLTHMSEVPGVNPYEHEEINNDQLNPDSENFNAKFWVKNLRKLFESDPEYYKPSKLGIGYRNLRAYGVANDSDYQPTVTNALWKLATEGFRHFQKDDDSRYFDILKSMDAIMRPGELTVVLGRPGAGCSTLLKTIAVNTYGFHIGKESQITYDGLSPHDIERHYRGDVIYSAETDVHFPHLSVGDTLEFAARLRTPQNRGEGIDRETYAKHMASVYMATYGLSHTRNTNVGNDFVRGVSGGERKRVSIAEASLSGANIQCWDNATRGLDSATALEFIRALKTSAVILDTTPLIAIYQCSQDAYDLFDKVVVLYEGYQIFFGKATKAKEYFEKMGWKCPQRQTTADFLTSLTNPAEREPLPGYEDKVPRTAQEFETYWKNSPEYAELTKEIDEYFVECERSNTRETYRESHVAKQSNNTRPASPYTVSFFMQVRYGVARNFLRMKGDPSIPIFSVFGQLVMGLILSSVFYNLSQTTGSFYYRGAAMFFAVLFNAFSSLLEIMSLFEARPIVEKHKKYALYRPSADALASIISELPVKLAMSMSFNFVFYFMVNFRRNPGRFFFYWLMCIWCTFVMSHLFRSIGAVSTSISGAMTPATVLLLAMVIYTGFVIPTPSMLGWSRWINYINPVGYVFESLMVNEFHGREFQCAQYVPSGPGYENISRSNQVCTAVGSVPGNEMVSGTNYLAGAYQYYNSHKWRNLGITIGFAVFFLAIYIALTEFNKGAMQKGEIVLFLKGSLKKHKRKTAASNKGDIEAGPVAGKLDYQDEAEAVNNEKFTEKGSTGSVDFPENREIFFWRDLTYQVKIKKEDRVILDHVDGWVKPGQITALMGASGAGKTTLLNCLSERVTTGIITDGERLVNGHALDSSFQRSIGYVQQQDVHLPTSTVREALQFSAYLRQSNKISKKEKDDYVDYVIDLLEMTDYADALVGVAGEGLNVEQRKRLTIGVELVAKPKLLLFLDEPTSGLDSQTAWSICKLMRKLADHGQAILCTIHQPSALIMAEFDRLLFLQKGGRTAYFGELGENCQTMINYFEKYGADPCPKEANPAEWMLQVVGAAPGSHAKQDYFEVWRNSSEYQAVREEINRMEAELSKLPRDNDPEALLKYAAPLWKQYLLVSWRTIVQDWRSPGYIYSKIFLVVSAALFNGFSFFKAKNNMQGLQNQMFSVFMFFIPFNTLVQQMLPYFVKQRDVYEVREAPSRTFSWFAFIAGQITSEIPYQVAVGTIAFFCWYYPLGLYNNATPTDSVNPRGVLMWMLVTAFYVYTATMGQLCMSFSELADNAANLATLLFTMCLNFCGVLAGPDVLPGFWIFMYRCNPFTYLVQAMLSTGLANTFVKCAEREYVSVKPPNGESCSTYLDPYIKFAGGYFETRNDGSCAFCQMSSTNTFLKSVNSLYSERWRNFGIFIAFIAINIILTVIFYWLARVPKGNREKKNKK", "experiment": "inhibition of Nile Red efflux via Candida CDR1 – S. cerevisiae AD1-8u, singleplex, Cherry Pick1 hits, dose response (AID 588606)", "format": "functional"}, "[5]": {"biological_target": "Activin receptor type-1 (Homo sapiens, UniProt Q04771)", "sequence (Q04771 whole entry)": "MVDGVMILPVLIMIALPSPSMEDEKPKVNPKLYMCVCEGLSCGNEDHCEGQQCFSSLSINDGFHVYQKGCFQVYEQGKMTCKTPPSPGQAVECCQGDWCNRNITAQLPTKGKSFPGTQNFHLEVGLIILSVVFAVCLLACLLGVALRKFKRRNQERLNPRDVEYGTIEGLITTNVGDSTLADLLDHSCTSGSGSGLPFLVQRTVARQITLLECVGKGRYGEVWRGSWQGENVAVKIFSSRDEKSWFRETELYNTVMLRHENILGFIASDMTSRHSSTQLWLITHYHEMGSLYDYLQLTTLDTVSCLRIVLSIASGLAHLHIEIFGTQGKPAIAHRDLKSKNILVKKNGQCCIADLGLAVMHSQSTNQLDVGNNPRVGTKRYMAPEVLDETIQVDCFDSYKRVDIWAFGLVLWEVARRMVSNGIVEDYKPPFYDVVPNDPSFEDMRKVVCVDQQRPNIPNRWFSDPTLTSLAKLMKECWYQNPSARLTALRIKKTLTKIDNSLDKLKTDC", "experiment": "Navigating the Kinome. Panel member name: ACVR1", "format": "functional"}, "[6]": {"biological_target": "Tyrosine-protein kinase ABL1 (Homo sapiens, UniProt P00519)", "format": "functional"}, "[7]": {"biological_target": "Dual specificity tyrosine-phosphorylation-regulated kinase 1B (Homo sapiens, UniProt Q9Y463)", "sequence (Q9Y463 whole entry)": "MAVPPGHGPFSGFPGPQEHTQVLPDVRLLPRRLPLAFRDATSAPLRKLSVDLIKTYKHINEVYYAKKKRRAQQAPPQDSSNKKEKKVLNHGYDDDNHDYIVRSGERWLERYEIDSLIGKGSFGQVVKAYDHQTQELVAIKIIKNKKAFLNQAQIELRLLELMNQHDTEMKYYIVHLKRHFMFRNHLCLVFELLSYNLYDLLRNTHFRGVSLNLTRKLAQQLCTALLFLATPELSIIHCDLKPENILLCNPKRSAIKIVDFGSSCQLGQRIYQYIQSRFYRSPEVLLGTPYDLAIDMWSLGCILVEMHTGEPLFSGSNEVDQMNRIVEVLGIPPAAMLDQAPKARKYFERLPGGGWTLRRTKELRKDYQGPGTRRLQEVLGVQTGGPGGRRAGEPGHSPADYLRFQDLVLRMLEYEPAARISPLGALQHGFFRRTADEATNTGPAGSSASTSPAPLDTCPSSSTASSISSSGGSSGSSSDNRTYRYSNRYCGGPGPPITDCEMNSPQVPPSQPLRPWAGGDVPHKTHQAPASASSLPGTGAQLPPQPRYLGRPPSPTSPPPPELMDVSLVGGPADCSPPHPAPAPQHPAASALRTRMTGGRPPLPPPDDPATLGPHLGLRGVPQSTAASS", "experiment": "Navigating the Kinome. Panel member name: DYRK1B", "format": "functional"}, "[8]": {"biological_target": "Insulin-like growth factor 1 receptor (Homo sapiens, UniProt P08069)", "experiment": "Navigating the Kinome. Panel member name: IGF1R", "format": "functional"}, "[9]": {"biological_target": "RAC-gamma serine/threonine-protein kinase (Homo sapiens, UniProt Q9Y243)", "format": "functional"}, "[10]": {"biological_target": "Fibroblast growth factor receptor 1 (Homo sapiens, UniProt P11362)", "format": "functional"}, "[11]": {"biological_target": "Ribosomal protein S6 kinase alpha-3 (Homo sapiens, UniProt P51812)", "format": "functional"}, "[12]": {"biological_target": "Aurora kinase A (Homo sapiens, UniProt O14965)", "format": "functional"}, "[13]": {"biological_target": "MAP/microtubule affinity-regulating kinase 3 (Homo sapiens, UniProt P27448)", "format": "functional"}, "[14]": {"biological_target": "Cyclin-dependent kinase 2 (Homo sapiens, UniProt P24941)", "format": "functional"}, "[15]": {"biological_target": "Ribosomal protein S6 kinase beta-1 (Homo sapiens, UniProt P23443)", "format": "functional"}, "[16]": {"biological_target": "Serine/threonine-protein kinase pim-1 (Homo sapiens, UniProt P11309)", "sequence (P11309 whole entry)": "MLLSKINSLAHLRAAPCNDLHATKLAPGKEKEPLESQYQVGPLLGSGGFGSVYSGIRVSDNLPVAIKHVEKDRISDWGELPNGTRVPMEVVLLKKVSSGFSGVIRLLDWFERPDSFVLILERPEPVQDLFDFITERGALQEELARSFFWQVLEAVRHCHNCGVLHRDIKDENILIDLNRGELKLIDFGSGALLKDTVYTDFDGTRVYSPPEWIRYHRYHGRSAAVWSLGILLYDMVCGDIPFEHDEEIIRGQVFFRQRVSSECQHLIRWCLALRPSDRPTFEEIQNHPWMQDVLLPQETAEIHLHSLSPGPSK", "format": "functional"}, "[17]": {"biological_target": "Serine/threonine-protein kinase PLK3 (Homo sapiens, UniProt Q9H4B4)", "sequence (Q9H4B4 whole entry)": "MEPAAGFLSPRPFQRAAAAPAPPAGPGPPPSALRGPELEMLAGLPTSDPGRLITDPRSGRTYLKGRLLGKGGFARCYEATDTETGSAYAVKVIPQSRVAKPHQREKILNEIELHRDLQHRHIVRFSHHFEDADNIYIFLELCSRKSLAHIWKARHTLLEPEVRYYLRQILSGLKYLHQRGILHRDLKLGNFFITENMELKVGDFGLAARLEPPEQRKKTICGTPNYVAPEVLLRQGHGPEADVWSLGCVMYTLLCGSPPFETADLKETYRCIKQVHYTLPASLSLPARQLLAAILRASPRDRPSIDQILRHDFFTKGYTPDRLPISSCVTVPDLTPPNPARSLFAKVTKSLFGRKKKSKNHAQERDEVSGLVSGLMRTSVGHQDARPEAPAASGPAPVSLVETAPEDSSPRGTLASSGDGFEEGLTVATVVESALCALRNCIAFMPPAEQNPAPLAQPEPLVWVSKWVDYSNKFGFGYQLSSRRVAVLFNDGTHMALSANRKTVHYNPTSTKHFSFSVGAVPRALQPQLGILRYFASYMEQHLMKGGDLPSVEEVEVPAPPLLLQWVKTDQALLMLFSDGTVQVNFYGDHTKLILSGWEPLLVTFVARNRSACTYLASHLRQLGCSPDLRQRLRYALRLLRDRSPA", "format": "functional"}, "[18]": {"biological_target": "Serine/threonine-protein kinase Chk2 (Homo sapiens, UniProt O96017)", "format": "functional"}, "[19]": {"biological_target": "Serine/threonine-protein kinase PLK1 (Homo sapiens, UniProt P53350)", "format": "functional"}, "[20]": {"biological_target": "Cyclin-dependent kinase 1 (Homo sapiens, UniProt P06493)", "format": "functional"}, "[21]": {"biological_target": "Protein kinase C gamma type (Homo sapiens, UniProt P05129)", "format": "functional"}, "[22]": {"biological_target": "MAP kinase-activated protein kinase 2 (Homo sapiens, UniProt P49137)", "format": "functional"}, "[23]": {"biological_target": "Serine/threonine-protein kinase PAK 4 (Homo sapiens, UniProt O96013)", "format": "functional"}, "[24]": {"biological_target": "Protein kinase C zeta type (Homo sapiens, UniProt Q05513)", "format": "functional"}, "[25]": {"biological_target": "Protein kinase C delta type (Homo sapiens, UniProt Q05655)", "format": "functional"}, "[26]": {"biological_target": "Glycogen synthase kinase-3 beta (Homo sapiens, UniProt P49841)", "sequence (P49841 whole entry)": "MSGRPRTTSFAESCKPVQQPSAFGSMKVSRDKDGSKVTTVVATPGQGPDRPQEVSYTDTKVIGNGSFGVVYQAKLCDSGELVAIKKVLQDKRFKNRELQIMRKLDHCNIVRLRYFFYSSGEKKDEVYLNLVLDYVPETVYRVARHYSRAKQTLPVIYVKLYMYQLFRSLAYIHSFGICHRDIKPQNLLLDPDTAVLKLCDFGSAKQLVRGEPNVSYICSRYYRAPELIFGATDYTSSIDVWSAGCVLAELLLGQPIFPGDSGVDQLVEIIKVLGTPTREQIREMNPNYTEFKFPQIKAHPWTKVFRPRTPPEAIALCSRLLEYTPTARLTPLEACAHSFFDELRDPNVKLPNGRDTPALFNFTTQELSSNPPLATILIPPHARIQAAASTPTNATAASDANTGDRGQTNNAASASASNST", "format": "functional"}, "[27]": {"biological_target": "Ephrin type-A receptor 2 (Homo sapiens, UniProt P29317)", "format": "functional"}, "[28]": {"biological_target": "Casein kinase II subunit alpha (Homo sapiens, UniProt P68400)", "format": "functional"}, "[29]": {"biological_target": "5'-AMP-activated protein kinase catalytic subunit alpha-1 (Homo sapiens, UniProt Q13131)", "sequence (Q13131 whole entry)": "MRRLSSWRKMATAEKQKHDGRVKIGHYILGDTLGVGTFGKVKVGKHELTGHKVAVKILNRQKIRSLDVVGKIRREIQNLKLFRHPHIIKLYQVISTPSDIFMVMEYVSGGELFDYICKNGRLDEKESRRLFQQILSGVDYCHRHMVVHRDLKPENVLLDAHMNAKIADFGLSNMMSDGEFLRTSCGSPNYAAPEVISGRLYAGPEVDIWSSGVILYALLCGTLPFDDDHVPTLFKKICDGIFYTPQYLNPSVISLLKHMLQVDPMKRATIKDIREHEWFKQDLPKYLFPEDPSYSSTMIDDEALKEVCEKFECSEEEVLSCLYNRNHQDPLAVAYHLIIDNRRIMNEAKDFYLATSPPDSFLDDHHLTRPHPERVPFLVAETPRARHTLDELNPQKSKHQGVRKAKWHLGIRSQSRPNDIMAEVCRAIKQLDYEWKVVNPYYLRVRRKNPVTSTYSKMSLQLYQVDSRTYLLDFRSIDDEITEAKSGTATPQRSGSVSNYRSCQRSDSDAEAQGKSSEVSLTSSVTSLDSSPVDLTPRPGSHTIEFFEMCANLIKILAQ", "format": "functional"}, "[30]": {"biological_target": "RAC-alpha serine/threonine-protein kinase (Homo sapiens, UniProt P31749)", "format": "functional"}, "[31]": {"biological_target": "Serine/threonine-protein kinase Chk1 (Homo sapiens, UniProt O14757)", "format": "functional"}, "[32]": {"biological_target": "cAMP-dependent protein kinase catalytic subunit alpha (Homo sapiens, UniProt P17612)", "format": "functional"}, "[33]": {"biological_target": "Serine/threonine-protein kinase MRCK alpha (Homo sapiens, UniProt Q5VT25)", "format": "functional"}, "[34]": {"biological_target": "Tyrosine-protein kinase receptor TYRO3 (Homo sapiens, UniProt Q06418)", "format": "functional"}, "[35]": {"biological_target": "Casein kinase I isoform alpha (Homo sapiens, UniProt P48729)", "format": "functional"}, "[36]": {"biological_target": "Homeodomain-interacting protein kinase 2 (Homo sapiens, UniProt Q9H2X6)", "format": "functional"}, "[37]": {"biological_target": "Cell division cycle 7-related protein kinase (Homo sapiens, UniProt O00311)", "format": "functional"}, "[38]": {"biological_target": "Dual specificity protein kinase CLK4 (Homo sapiens, UniProt Q9HAZ1)", "format": "functional"}, "[39]": {"biological_target": "Interleukin-1 receptor-associated kinase 4 (Homo sapiens, UniProt Q9NWZ3)", "format": "functional"}, "[40]": {"biological_target": "Mitogen-activated protein kinase kinase kinase kinase 4 (Homo sapiens, UniProt O95819)", "format": "functional"}},
  "note": "Active and inactive are the calls of the source.",
  "data": [
    {"smiles": "COC(=O)CCC(=O)Nc1sc2c(c1C#N)CCCC2", "values": [
      {"measurement": "EC50", "setting": "[1]", "result": "14 µM (active)"}
    ]},
    {"smiles": "O=C1NC(=S)NC(=O)C1=Cc1cc2ccccc2[nH]1", "values": [
      {"measurement": "IC50", "setting": "[2]", "result": "> 59.6 µM (not active)"},
      {"measurement": "IC50", "setting": "[3]", "result": "1.67 µM (active)"},
      {"measurement": "EC50", "setting": "[4]", "result": "6 µM (active)"}
    ]},
    {"smiles": "CC(C)(C)c1nc2c3ccc(F)cc3c3c(=O)[nH]ccc3c2[nH]1", "values": [
      {"measurement": "Ki", "setting": "[5]", "result": "> 3.98 µM (inactive)"},
      {"measurement": "Ki", "setting": "[6]", "result": "> 2.51 µM (inactive)"},
      {"measurement": "Ki", "setting": "[7]", "result": "> 2.51 µM (inactive)"},
      {"measurement": "Ki", "setting": "[8]", "result": "> 2.51 µM (inactive)"}
    ]},
    {"smiles": "O=C1NC(=O)C(Nc2ccccc2)=C1Cl", "values": [
      {"measurement": "Ki", "setting": "[9]", "result": "> 25.1 µM (inactive)"},
      {"measurement": "Ki", "setting": "[10]", "result": "> 12.6 µM (inactive)"},
      {"measurement": "Ki", "setting": "[11]", "result": "> 20 µM (inactive)"},
      {"measurement": "Ki", "setting": "[12]", "result": "15.8 µM (active)"},
      {"measurement": "Ki", "setting": "[13]", "result": "> 15.8 µM (inactive)"},
      {"measurement": "Ki", "setting": "[14]", "result": "> 20 µM (inactive)"},
      {"measurement": "Ki", "setting": "[15]", "result": "> 15.8 µM (inactive)"},
      {"measurement": "Ki", "setting": "[16]", "result": "15.8 µM (active)"},
      {"measurement": "Ki", "setting": "[17]", "result": "> 20 µM (inactive)"},
      {"measurement": "Ki", "setting": "[18]", "result": "> 25.1 µM (inactive)"},
      {"measurement": "Ki", "setting": "[19]", "result": "> 20 µM (inactive)"},
      {"measurement": "Ki", "setting": "[20]", "result": "> 20 µM (inactive)"},
      {"measurement": "Ki", "setting": "[21]", "result": "> 20 µM (inactive)"},
      {"measurement": "Ki", "setting": "[22]", "result": "> 20 µM (inactive)"},
      {"measurement": "Ki", "setting": "[23]", "result": "> 12.6 µM (inactive)"},
      {"measurement": "Ki", "setting": "[24]", "result": "> 20 µM (inactive)"},
      {"measurement": "Ki", "setting": "[25]", "result": "> 20 µM (inactive)"},
      {"measurement": "Ki", "setting": "[26]", "result": "1 µM (active)"},
      {"measurement": "Ki", "setting": "[27]", "result": "> 20 µM (inactive)"},
      {"measurement": "Ki", "setting": "[28]", "result": "> 15.8 µM (inactive)"},
      {"measurement": "Ki", "setting": "[29]", "result": "> 25.1 µM (inactive)"},
      {"measurement": "Ki", "setting": "[30]", "result": "> 20 µM (inactive)"},
      {"measurement": "Ki", "setting": "[31]", "result": "12.6 µM (active)"},
      {"measurement": "Ki", "setting": "[32]", "result": "> 20 µM (inactive)"},
      {"measurement": "Ki", "setting": "[33]", "result": "> 25.1 µM (inactive)"}
    ]},
    {"smiles": "NC(=O)c1ccccc1-c1ncc[nH]1", "values": [
      {"measurement": "Ki", "setting": "[34]", "result": "79.4 µM (active)"},
      {"measurement": "Ki", "setting": "[35]", "result": "50.1 µM (active)"},
      {"measurement": "Ki", "setting": "[7]", "result": "63.1 µM (active)"}
    ]},
    {"smiles": "O=c1cc(-c2cccc(F)c2)[nH]c2c(-c3ccc(F)cc3)cnn12", "values": [
      {"measurement": "Ki", "setting": "[14]", "result": "> 7.94 µM (inactive)"},
      {"measurement": "Ki", "setting": "[16]", "result": "0.126 µM (active)"},
      {"measurement": "Ki", "setting": "[36]", "result": "0.501 µM (active)"},
      {"measurement": "Ki", "setting": "[26]", "result": "2 µM (active)"},
      {"measurement": "Ki", "setting": "[37]", "result": "0.0631 µM (active)"},
      {"measurement": "Ki", "setting": "[38]", "result": "0.158 µM (active)"},
      {"measurement": "Ki", "setting": "[39]", "result": "> 10 µM (inactive)"},
      {"measurement": "Ki", "setting": "[32]", "result": "> 7.94 µM (inactive)"},
      {"measurement": "Ki", "setting": "[40]", "result": "> 10 µM (inactive)"}
    ]}
  ]
}
